Results as given in patent publication US20250144067A1, “PERSONALIZED STARVATION THERAPY FOR CANCER” (Faeth Therapeutics, Inc., priority 2021, published 2025).
Where a name gives a salt, the structure may show the parent alone. Read-outs that look alike come from different tables or passages of the source.

Legend:
[1] = tested on: NCI-H292 lung cancer cells; experiment: FDA drug screening, complete media vs cholesterol-free media without statin (TABLE 1); assay type: cell-based, human
[2] = tested on: NCI-H292 lung cancer cells; experiment: FDA drug screening, complete media vs cholesterol-free media with simvastatin (TABLE 2); assay type: cell-based, human
[3] = NCI-H292 cells, cholesterol-free media without statin
[4] = complete vs cholesterol-free media, greater than 0 enhanced anti-cancer activity, about 0 neutral, below 0 antagonists
[5] = NCI-H292 cells, FDA drug library screen, cholesterol-free media with simvastatin 0.04 μM
[6] = NCI-H292 cells, FDA drug library screen, complete media
[7] = complete media vs cholesterol-free media + simvastatin (0.04 μM), >0 enhanced anti-cancer activity, about 0 neutral, <0 antagonist
[8] = Complete minus Cholesterol-free, greater than 0 enhanced anti-cancer activity, about 0 neutral, below 0 antagonists
[9] = NCI-H292 cells in cholesterol-free media without statin
[10] = NCI-H292 cells in complete media
[11] = complete media minus cholesterol-free media + simvastatin, >0 enhanced anti-cancer activity, about 0 neutral, <0 antagonist
[12] = NCI-H292 cells, cholesterol-free media without statin, FDA drug library screen
[13] = NCI-H292 cells, complete media, FDA drug library screen
[14] = NCI-H292 cells, cholesterol-free media with simvastatin 0.04 μM, cell growth value in FDA drug screen
[15] = NCI-H292 cells, complete media, cell growth value in FDA drug screen
[16] = Complete minus Cholesterol-free, >0 enhanced anti-cancer activity, about 0 neutral, <0 antagonist

Row | SMILES | Cholesterol-free [1, 3] | Complete ([1]; NCI-H292 cells, complete media) | Cholesterol-free media + simvastatin (0.04 μM) [2, 5] | Complete Media [2, 6] | Difference [2, 7] | Difference [2, 11] | Cholesterol-free [1, 12] | Complete [1, 13] | other results
1 | Cc1ccc(C)c(OCCCC(C)(C)C(=O)O)c1 [Gemfibrozil] | 1.369 | 0.9198 | 1.808 | 1.701 | −0.11 |  |  |  | Difference [1, 4]: −0.45
2 | CCN(c1cc(-c2ccc(CN3CCOCC3)cc2)cc(C(=O)NCc2c(C)cc(C)[nH]c2=O)c1C)C1CCOCC1 [Tazemetostat] |  |  | 0.9335 | 1.59 |  | 0.66 |  |  | Difference [1, 8]: −0.49; Cholesterol-free [1, 9]: 1.722; Complete [1, 10]: 1.228
3 | C[C@@H](NCCCc1cccc(C(F)(F)F)c1)c1cccc2ccccc12 [Cinacalcet] |  |  |  |  |  | 0.06 | 0.8181 | 1.378 | Difference ([1]; complete vs cholesterol-free media, >0 enhanced anti-cancer activity, about 0 neutral, <0 antagonist): 0.56; Cholesterol-free media + simvastatin (0.04 μM) [2, 14]: 0.8605; Complete Media [2, 15]: 0.9247
4 | CCOc1ccccc1OC(c1ccccc1)C1CNCCO1.CS(=O)(=O)O (centres unmarked) [Reboxetine (mesylate)] |  |  | 0.8624 | 0.7048 |  |  | 1.105 | 1.321 | Difference ([1]; complete vs cholesterol-free media, […]): 0.22; Difference ([2]; complete media vs cholesterol-free media + simvastatin (0.04 μM), […]): −0.16
5 | Cc1c(C)c2c(c(C)c1O)CC[C@@](C)(CCC[C@H](C)CCC[C@H](C)CCCC(C)C)O2 [α-Vitamin E] | 1.5 | 1.082 |  |  | −0.59 |  |  |  | Difference [1, 4]: −0.42; Cholesterol-free media + simvastatin (0.04 μM) ([2]; NCI-H292 cells, FDA library drug in cholesterol-free media with simvastatin 0.04 μM): 1.493; Complete Media ([2]; NCI-H292 cells, FDA library drug in complete media): 0.9076
6 | CC[C@@]1(O)C[C@H](O[C@H]2C[C@H](N(C)C)[C@H](O[C@H]3C[C@H](O)[C@H](O[C@H]4CCC(=O)[C@H](C)O4)[C@H](C)O3)[C@H](C)O2)c2c(cc3c(c2O)C(=O)c2c(O)cccc2C3=O)[C@H]1C(=O)OC.Cl [Aclacinomycin A hydrochloride] |  |  |  |  |  |  | 0.01335 | 0.007534 | Difference ([1]; Complete minus Cholesterol-free, […]): −0.01; Cholesterol-free media + simvastatin (0.04 μM) ([2]; NCI-H292 cells, cholesterol-free media with simvastatin 0.04 μM, FDA drug library screen (TABLE 2)): 0.01688; Complete Media ([2]; NCI-H292 cells, complete media, FDA drug library screen (TABLE 2)): 0.01023; Difference ([2]; complete media minus cholesterol-free media + simvastatin (0.04 μM), […]): −0.01
7 | C[C@H](CCC(=O)O)[C@H]1CC[C@H]2[C@@H]3C(=O)C[C@@H]4CC(=O)CC[C@]4(C)[C@H]3CC(=O)[C@]12C [Dehydrocholic acid] | 1.151 | 0.9012 |  |  |  | 0.05 |  |  | Difference [1, 16]: −0.25; Cholesterol-free media + simvastatin (0.04 μM) [2, 14]: 0.8533; Complete Media [2, 15]: 0.9003
8 | O=C(OCC(O)CO)c1ccccc1Nc1ccnc2cc(Cl)ccc12 (centres unmarked) [Glafenine] |  |  |  |  |  |  |  |  | Cholesterol-free [1]: 1.288; Difference [1]: −0.12; Cholesterol-free media + simvastatin (0.04 μM) [2]: 0.9477; Complete Media [2]: 1.068; Difference [2]: 0.12
9 | CCC[C@@H]1C[C@@H](C(=O)N[C@@H]([C@H]2O[C@H](SC)[C@H](O)[C@@H](O)[C@H]2O)[C@H](C)Cl)N(C)C1 [Clindamycin (hydrochloride)] |  |  |  |  |  | 0.06 |  |  | Difference ([1]; Complete minus Cholesterol-free, greater than 0 enhanced anti-cancer activity, about 0 neutral, below 0 antagonist): −0.08; Cholesterol-free ([1]; NCI-H292 cells, FDA drug library screen, cholesterol-free media without statin): 1.009; Complete [1, 6]: 0.9276; Cholesterol-free media + simvastatin (0.04 μM) [2, 14]: 1.243; Complete Media [2, 15]: 1.299
10 | CC(C)NCC(O)c1ccc(NS(C)(=O)=O)cc1 (centres unmarked) [Sotalol (hydrochloride)] | 1.39 | 0.9629 | 0.8339 | 0.7583 | −0.08 |  |  |  | Difference [1, 4]: −0.43
11 | CCOC(=O)C1=C(C)NC(C)=C(C(=O)OC)C1c1cccc(Cl)c1Cl (centres unmarked) [Felodipine] | 1.202 | 1.01 |  |  | −0.24 |  |  |  | Difference [1, 16]: −0.19; Cholesterol-free media + simvastatin (0.04 μM) ([2]; NCI-H292 cells, drug in cholesterol-free media with simvastatin 0.04 μM): 1.148; Complete Media ([2]; NCI-H292 cells, drug in complete media): 0.9051
12 | COC(=O)CCC(=O)CN [Methyl aminolevulinate (hydrochloride)] |  |  | 1.272 | 1.627 |  | 0.35 |  |  | Difference [1, 8]: −0.59; Cholesterol-free [1, 9]: 1.473; Complete [1, 10]: 0.886
13 | CC(CCc1ccc(O)cc1)NCCc1ccc(O)c(O)c1 (centres unmarked) [Dobutamine (hydrochloride)] |  |  | 0.8343 | 1.237 |  | 0.40 | 1.125 | 1.131 | Difference [1, 16]: 0.01
